Data set [1] has as its system HEK293T/17 cells expressing WT γ1AMPK. Nature of the data set: α-Thr172 phosphorylation immunoblot, HEK293T/17 cells transiently expressing WT γ1AMPK. Conditions: WT γ1-expressing cells, 2.5 µM, 60 min. It counts as cell-based. As for the experimental part:
To explore this dose-dependent response, we used HEK293T/17 cells transiently expressing WT γ1AMPK or the AMP-insensitive γ1 mutant R299G (Supplementary Figure S4A). […] One explanation is that 2.5 µM MK-8722 caused indirect activation of AMPK (α-Thr172 phosphorylation) by inducing a metabolic stress leading to rises in AMP/ATP and ADP/ATP ratios. We examined the effect of MK-8722 incubation on C2C12 mitochondrial function (Supplementary Figure S4B–I).
HEK293T/17, HEK293T, COS7, HeLa and PC3 cells (ATCC) were maintained in Dulbecco's Modified Eagle's medium (DMEM; Sigma–Aldrich) supplemented with 10% fetal bovine serum (FBS; Assay Matrix) at 37°C and 5% CO2. Primary hepatocytes from wild type mice were prepared using the collagenase perfusion method and cultured as described previously. […]
All samples were separated on 12% SDS–PAGE gels and transferred to an Immobilon-FL PVDF membrane (Merck Millipore). […] Immunoblots were visualised on the Odyssey Infrared Imaging System (LI-COR Biosciences) and immunoreactive bands analysed and quantified using Image Studio Software (LI-COR Biosciences).
Lysates were assessed for phosphorylation of AMPKα-Thr172 by immunoblot. n = 3, data presented as mean T172 phosphorylation (arbitrary units) ± SEM. […] (J) Lysates were assessed for total protein content following the respiration assay.
On the technique in general: Immunoblotting shows a protein as a band on a membrane.

The next data set has as its system HEK293T cells. Nature of the data set: Adenylate energy charge by LC-MS in HEK293T cells. It counts as cell-based. Conditions: MSG011 up to 40 µM, 1 h. Here is the method: HEK293T cell cultures grown in six-well plates were gently washed in ice cold PBS, lysed with 150 µl of ice cold 0.5 M perchloric acid (Univar) and clarified by centrifugation (16 000g, 3 min, 4°C). An amount of 75 µl of clarified lysate was neutralised with 25 µl of ice cold 2.3 M KHCO3 (Sigma–Aldrich), incubated on ice for 5 min and then centrifuged (16 000g, 3 min, 4°C). Supernatants were collected for analysis by liquid chromatography mass spectrometry–mass spectrometry (LC–MS/MS).
Adenine nucleotide metabolites were measured by LC–MS/MS with modifications to our previously described method. A QTRAP 5500 mass spectrometer (AB Sciex) was operated with the turbo V ion source linked to Prominence UFLCXR LC-20ADXR pumps (Shimadzu), SIL-20AC HT autosampler (Shimadzu) and CTO-20A HPLC column oven (Shimadzu). Both LC and MS instruments were controlled and managed with the Analyst 1.7.1 software (AB Sciex). Nitrogen was provided by a Genius NM3G nitrogen gas generator (PEAK Scientific). […] Data was analysed with MultiQuant 3.0.2 software (AB Sciex) using area under the LC curve. Calibration curves were determined by linear regression of the peak area ratio of each nucleotide and were required to have a correlation coefficient (R^2) of >0.98. […] AEC was calculated from the ratios of [AMP], [ADP] and [ATP] […]

Results on 2 compounds are retold here after publication PMC9317966, “Structure-function analysis of the AMPK activator SC4 and identification of a potent pan AMPK activator” (Biochemical Journal, 2022).

Molecules are shown by their SMILES.

In the case of `O[C@@H]1CO[C@H]2[C@@H]1OC[C@H]2Oc1nc2nc(-c3ccc(-c4ccccc4)cc3)c(Cl)cc2[nH]1` [MK-8722, reference compound], the “phosphorylation of α-Thr172” value in data set [1] is recorded as “significantly increased”.
For `CC(=O)NC1CC=C(c2ccc(-c3nc4nc(Oc5ccc(C)c(C(=O)O)c5)[nH]c4cc3Cl)cc2)CC1` (centres unmarked) [MSG011, 5-((5-(4′-Acetamido-2′,3′,4′,5′-tetrahydro-[1,1′-biphenyl]-4-yl)-6-chloro-1H-imidazo[4,5-b]pyridin-2-yl)oxy)-2-methylbenzoic acid], the “adenylate energy charge (AEC)” value in the data set with HEK293T cells is reported as “unaffected”.
